In patent US12193465B2, “Materials and methods for extending shelf-life of foods” (JP Laboratories, Inc., priority 2021, dated 2025):
“And” between values parts separate entries of the source, which are not always exact repeats. Equal values may be shown once.

How the values were obtained:
[1] = test system: grains, legumes, potatoes, garlic; assay: Germination / sprouting of grains, legumes and tubers
From the text: (§1) These bags were sealed with a heat sealer.
(§2) The assembly was shaken periodically.

[2] = Color change / browning / yellowing of foods (keeping produce green longer); conditions: for Change in color and softness: after 70 days
Method: All studies were conducted at a room temperature of about 25° C. To determine the effectiveness of a shelf-life extender, a control sample which was untreated with any shelf-life extenders, was tested identical to the test samples. […] All studies in those Examples of Tables 1-6 were conducted in closed plastic or glass containers. Containers, such as plastic containers, without or with lids having holes can be used if it is advantageous to let excess moisture escape or to prevent condensation of moisture released by some produce.
Food exposed to preservatives or by a sachet was placed in typically polystyrene or acrylic containers depending upon the size and number of food items. Glass jars and bottles were also used. The containers were snap-closed or with a lid. The containers were purchased mainly from Amazon or Webstaurant.com store. When needed, plastic containers with holes or without lids were used.
For controlled exposure and a constant supply of a preservative to foods, sachets containing one or more drops of preservatives were used. Sachets were made by placing an appropriate amount of a preservative in a plastic bag containing a piece of paper and heat sealing the bag. The sachet bag materials used were Tyvek® for solid preservative, polyethylene, polyester and high barrier multilayer films were used for liquid preservatives. These bags were sealed with a heat sealer. The sachet was typically applied on one side of the container containing food.
A piece of paper napkin was taped inside a 100 microns thick polyethylene or polyester Ziploc bag. The size of the bag varied from ˜20 cm×30 cm to ˜60 cm×90 cm depended on the sample with sandwich bags up to gallon bags being exemplary. The paper napkin was wetted with 0.1-0.5 ml of a preservative or a mixture of preservatives. A tray of aluminum, stainless steel or glass containing the foods was placed inside the plastic (polyethylene, polyester and multilayer-laminated) bag and almost closed by locking the Ziploc. Air was blown with an air blower from the unclosed end until the bag was fully blown and then quickly closed tightly by locking the remaining Ziploc. If a preservative was a sublimable solid, it was placed in a petri dish and then placed inside the bag in the tray before blowing air. The exposure time was varied from five minutes to a day depending upon the food. […] The assembly was shaken periodically. After the predetermined time, the tray containing produce was removed from the bag, allowed to de-gas for 10-30 minutes in air and the produce was then placed in an appropriately sized container. Glass and stainless steel containers with lids were also often used.
A solution of one or more preservatives was prepared in a large (e.g., 2-10 liter) glass beaker or a jar. A sack containing the food was prepared by placing the food in a plastic mesh bag. The sack was placed in the solution of the preservative. A smaller glass beaker containing proper amount of water was place over the package to keep the sack soaked in the solution of the preservative during the treatment. The solution was stirred either with a plastic spatula or with a magnet over a magnetic stirrer. After treatment, the mesh sack was removed, the produce was washed in a tray with running water, strained and air dried at 30° C. in an air blowing oven for about 5-10 minutes, while shaking the tray or turning the food periodically followed by placing the sample in an appropriate container.
The food was placed in mesh trays and sprayed with an aqueous solution (1-10%) of a preservative while shaking the tray or turning the food. The solution was allowed to drain from the tray and the food was air dried in an air blowing oven at 30° C. for about 5-10 minutes, while shaking the tray or turning food periodically followed by placing the sample in an appropriate container.

[3] = Odor and softening/mushiness of pre-soaked grains; conditions: Odor, White rice, control 5 days
From the text: (§3) Most of the foods changed color or texture.
as §1

[4] = General shelf-life extension of foods (spoilage criteria of Example 9)
[5] = test system: parval, methi, coriander, radish, guar; assay: Shriveling / wilting / dehydration / becoming wet of produce
From the text: as §3, §2

[6] = Gas formation (gassed dome) of fresh juice; conditions: Example 65, Orange juice, 0.02 g, control 4 days
From the text: as §3

[7] = test system: avocado; assay: Softening / rotten inside (spoiled flesh) of avocado; conditions: for Spoilage Time - Sample: Softening, Avocado, control 2 days
From the text: as §3, §2

[8] = Color loss of meat and fish; conditions: meat and fish
From the text: as §3, §1

[9] = Curdling / cream / solidification of milk
From the text: as §3

What does the source list for `C=CCN=C=S` [AI, allyl isothiocyanate]?
Spoilage Time - Sample ([1]; Example 66, Germination, Mixed Legumes (T), 0.10 g, control 3 days): 9 days; Spoilage Time - Sample ([1]; Example 67, Germination, Mixed Legumes, Sachet, control 4 days): 21 days; Spoilage Time - Sample ([1]; Example 67, Germination, Mixed Legumes, Sachet, control 4 days, listed as allyl isothiocyanate): > 21 days; Spoilage Time - Sample ([1]; Example 68, Germination, Mixed Legumes, Sachet, control 3 days): 9 days; Spoilage Time - Sample ([1]; Example 69, Germination, Soft White Wheat, Sachet, control 4 days): 21 days; Spoilage Time - Sample ([1]; Example 70, Germination, Soft White Wheat, 5 ml of 10% allyl isothiocyanate solution in water, control 4 days): 21 days; Spoilage Time - Sample ([1]; Example 71, Germination, Unshelled Rice, Sachet, control 3 days): 15 days; Spoilage Time - Sample ([1]; Example 79, Sprouting, Red Potatoes, 2 hrs P-E, control 9 days): 16 days; Spoilage Time - Sample ([1]; Example 80, Sprouting, Mix of red, purple and yellow potatoes, 4 hrs P-E, control 22 days): 46 days; Spoilage Time - Sample ([1]; Example 81, Sprouting, Fingerling Potatoes, 2 hrs P-E, control 37 days): 59 days; Spoilage Time - Sample ([1]; Example 82, Sprouting, Sprouted Garlic, 0.5 hr P-E, control 4 days): 4+ days; Spoilage Time - Sample ([1]; Example 82, Sprouting, Sprouted Garlic, 0.5 hr P-E, control 4 days, listed as allyl isothiocyanate): no further growth of sprouts; Germination and/or fungus ([1]; flooded shelled peanuts, a drop in flooded water, control 5 days): > 8 days; Sprouting ([1]; various types of potatoes, vapor or sachet, Examples 79-81): either prevented or significantly delayed; Spoilage Time - Sample ([2]; Example 11, Browning, Coriander, 0.25 hr P-E, control 11 days): significantly delayed; Spoilage Time - Sample ([2]; Example 12, Color change, Paneer (Indian cottage cheese), Sachet, control 9 days): 10+ days; Spoilage Time - Sample ([2]; Example 13, Color change, Red cabbage juice, 0.02 g, control 12 days): 13 days; Spoilage Time - Sample ([2]; Example 14, Color change, Blackberry juice, 0.02 g, control 5 days): 12 days; Spoilage Time - Sample ([2]; Example 15, Color change, Tindora, 2 hrs P-E, control 6 days): 17 days; Spoilage Time - Sample ([2]; Example 15, Color change, Tindora, 2 hrs P-E, control 6 days, listed as allyl isothiocyanate): delay of ripening and turning red from green was achieved; Green-to-yellow color change ([2]; Example 30, fresh green chickpeas, sachet, control 7 days): > 9 days; Change in color and softness ([2]; Example 48, puri): There was very little change in color and softness of puri even after 70 days. Other; Change in color and softness ([2]; Example 53, millet bread): There was very little change in color and softness of millet bread even after 70 days.; Color change from green-to-yellow ([2]; Examples 25 & 27, broccoli, vapors, control 5 days): > 16 days; Spoilage Time - Sample ([3]; Example 72, 5 ml of 10% allyl isothiocyanate solution in water): 21 days; Spoilage Time - Sample ([3]; Example 72, 5 ml of 10% allyl isothiocyanate solution in water, listed as allyl isothiocyanate): > 21 days; Spoilage Time - Sample ([3]; Example 73, Sachet): 21 days; Shelf-life of flowery vegetables ([4]; flowery vegetables): extended shelf-life; Shelf-life extension ([4]; tindora dipped in solution): demonstrated shelf-life extension; Effectiveness as shelf-life extender ([4]; tofu): effective; Effectiveness for controlling one or more spoilage criteria ([4]; variety of foods): effective to a greater or lesser extent; Spoilage Time - Sample ([5]; Example 75, Shriveling, Parval, 0.5 hr P-E, control 4 days): 4+ days; Spoilage Time - Sample ([5]; Example 76, Shriveling, Parval, 1 hr P-E, control 4 days): 4+ days; Spoilage Time - Sample ([5]; Example 83, Wet, Methi (Indian fenugreek), 1 hr P-E, control 9 days): 30 days; Spoilage Time - Sample ([5]; Example 83, Wet, Methi (Indian fenugreek), 1 hr P-E, control 9 days, listed as allyl isothiocyanate): remained fresh and green; Crispness of treated guar ([5]; guar exposed to vapor, lost green color slightly): remained crisp; Spoilage Time - Sample [6]: 12 days; Spoilage Time - Sample ([7]; Example 77, 0.25 hr P-E): 2 days; Spoilage Time - Sample ([7]; Example 78, 2 hrs P-E): 2 days; Spoiling of the flesh with development of fungus ([7]; avocados, Examples 77, 78, 107, 108, 113 & 171): significantly delayed; Improvements with meat and fish [8]: demonstrated improvements; Spoilage Time - Sample ([9]; Example 16, Cream, Raw cow milk, 0.07 g, control 3 days): 24 days; Spoilage Time - Sample ([9]; Example 17, Curdling, Milk (pasteurized, whole milk), 0.10 g, control 2 days): 16 days; Spoilage Time - Sample ([9]; Example 18, Curdling, Milk & Yogurt (whole milk & yogurt) mix, 0.10 g, control 2 days): 16 days; Spoilage Time - Sample ([9]; Example 18, Curdling, Milk & Yogurt (whole milk & yogurt) mix, 0.10 g, control 2 days, listed as allyl isothiocyanate): > 16 days; Spoilage Time - Sample ([9]; Example 19, Curdling, Milk (pasteurized, whole milk), 0.05 g, control 2 days): 28 days; Spoilage Time - Sample ([9]; Example 19, Curdling, Milk (pasteurized, whole milk), 0.05 g, control 2 days, listed as allyl isothiocyanate): > 28 days and > 21 days
